# Test results from patent US20230416247A1, “DRUG-LIKE MOLECULES AND METHODS FOR THE THERAPEUTIC TARGETING OF MICRORNA-21” (University of Washington, priority 2020, published 2023).
# System: mature miR-10b in AGS cells
# Test: qRT-PCR of mature miR-10b in AGS cells
# Format: cell-based, human
# Conditions: 10 nmoles, 48 hours, relative to DMSO control
# Method: FIGS. 14A-14D compare levels of mature miR-10b and pre-miR-10b measured in gastric adenocarcinoma (AGS) (FIGS. 14A and 14B, respectively) and pancreatic cancer cell line (ASPC 1) (FIGS. 14C and 14D, respectively), normalized to internal controls (U6 or U8 snRNA), in the presence of 10 nmoles of palbociclib (a negative control not expected to directly affect miRNA levels) and compounds −0045 and −0052, 48 hours after incubation, relative to DMSO control, and measured by standard qRT-PCR. We notice that levels of pre-miR-10b are very low in both cell lines, rendering the data very uncertain. Statistically significant changes are labeled with asterisks.
# In order to investigate whether inhibition was specific to miR-21, levels of mature miR-10b and pre-miR-10b were examined in the same cell lines (FIGS. 14A-14D); this is another oncogenic microRNA implicated in metastasis. […]
# Quantitative real time PCR analysis. […] RNA concentration was assessed with the NanoDrop ND-1000 spectrophotometer (ThermoFisher Scientific). […] Expression of miR-21 was assessed utilizing the TaqMan microRNA assay (Applied Biosystems). […] All experiments were performed in triplicate, with all samples normalized to the internal controls and relative expression levels calculated using the 2^ΔΔCt method.
smiles,measurement,value
O=c1[nH]c(Nc2ccc(N3CCNCC3)cn2)nc2cnccc12 [Compound 30],reduction of levels of mature miR-10b,about 2 fold
